Assay results as given in patent publication US9113629B2, “4-amino-6-(4-substituted-phenyl)-picolinates and 6-amino-2-(4-substituted-phenyl)-pyrimidine-4-carboxylates and their use as herbicides” (DOW AGROSCIENCES LLC, priority 2013, dated 2015).
Where two headings read alike, the source gives them in different places.

How the values were obtained:
[1] = system: Key Broadleaf Weed and Crop Species; assay: Post-emergent Test II herbicidal activity (Table 5); type: in vivo; details: post-emergence, 336 h, post-emergent, 14 days after application; for pest or weed control at 70 g/ha: 70 g ai/ha; for pest or weed control at 140 g/ha: 140 g ai/ha
In short: (§1)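 Plants grown in Metro-Mix 360 (pH 6.0–6.8) in a greenhouse (~15 h photoperiod, 23–29 °C day) to first or second true leaf stage, then sprayed with compound in acetone/DMSO/aqueous crop-oil-surfactant carrier at 187 L/ha by track sprayer. Injury visually scored 0–100% versus untreated plants after 14 d.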

[2] = system: Key Grass and Sedge Weeds as well as Grass Crops; assay: Post-emergent Test II herbicidal activity (Table 6); type: in vivo; details: post-emergence, 336 h; for pest or weed control at 70 g/ha: application rate 70 g ai/ha; for pest or weed control at 140 g/ha: application rate 140 g ai/ha
In short: as §1

[3] = ABUTH: velvetleaf (Abutilon theophrasti), read-out: Visual Growth Reduction (%) 14 Days After Application ABUTH
[4] = AMARE: redroot pigweed (Amaranthus retroflexus), read-out: Visual Growth Reduction (%) 14 Days After Application AMARE
[5] = BRSNN: oilseed-rape, canola (Brassica napus), read-out: Visual Growth Reduction (%) 14 Days After Application BRSNN
[6] = CHEAL: lambsquarters (Chenopodium album), read-out: Visual Growth Reduction (%) 14 Days After Application CHEAL
[7] = EPHHL: wild poinsettia (Euphorbia heterophylla), read-out: Visual Growth Reduction (%) 14 Days After Application EPHHL
[8] = HELAN: sunflower (Helianthus annuus), read-out: Visual Growth Reduction (%) 14 Days After Application HELAN
[9] = VIOTR: wild pansy (Viola tricolor), read-out: Visual Growth Reduction (%) 14 Days After Application VIOTR
[10] = Triticum aestivum, TRZSS (wheat), read-out: Visual Growth Reduction (%) 14 Days After Application, TRZSS
[11] = CYPES: yellow nutsedge (Cyperus esculentus), read-out: Visual Growth Reduction (%) 14 Days After Application, CYPES
[12] = DIGSA: crabgrass (Digitaria sanguinalis), read-out: Visual Growth Reduction (%) 14 Days After Application, DIGSA
[13] = ECHCG: barnyardgrass (Echinochloa crus-galli), read-out: Visual Growth Reduction (%) 14 Days After Application, ECHCG
[14] = ORYSA: rice (Oryza sativa), read-out: Visual Growth Reduction (%) 14 Days After Application, ORYSA
[15] = SETFA: giant foxtail (Setaria faberi), read-out: Visual Growth Reduction (%) 14 Days After Application, SETFA
[16] = SORVU: grain sorghum (Sorghum vulgare), read-out: Visual Growth Reduction (%) 14 Days After Application, SORVU
[17] = ZEAMX: maize, corn (Zea mays), read-out: Visual Growth Reduction (%) 14 Days After Application, ZEAMX

COC(=O)c1nc(-c2ccc(C(N)=O)cc2)c(F)c(N)c1Cl [Compound 192]
0 to 29%: pest or weed control at 70 g/ha [1, 3] | pest or weed control at 140 g/ha [1, 3] | pest or weed control at 70 g/ha [1, 4] | pest or weed control at 140 g/ha [1, 4] | pest or weed control at 70 g/ha [1, 5] | pest or weed control at 140 g/ha [1, 5] | pest or weed control at 70 g/ha [1, 6] | pest or weed control at 140 g/ha [1, 6] | pest or weed control at 70 g/ha [1, 7] | pest or weed control at 140 g/ha [1, 7] | pest or weed control at 70 g/ha [1, 8] | pest or weed control at 140 g/ha [1, 8] | pest or weed control at 70 g/ha [1, 9] | pest or weed control at 140 g/ha [1, 9] | pest or weed control at 70 g/ha [2, 10] | pest or weed control at 140 g/ha [2, 10] | pest or weed control at 70 g/ha [2, 11] | pest or weed control at 140 g/ha [2, 11] | pest or weed control at 70 g/ha [2, 12] | pest or weed control at 140 g/ha [2, 12] | pest or weed control at 70 g/ha [2, 13] | pest or weed control at 140 g/ha [2, 13] | pest or weed control at 70 g/ha [2, 14] | pest or weed control at 140 g/ha [2, 14] | pest or weed control at 70 g/ha [2, 15] | pest or weed control at 140 g/ha [2, 15] | pest or weed control at 70 g/ha [2, 16] | pest or weed control at 140 g/ha [2, 16] | pest or weed control at 70 g/ha [2, 17] | pest or weed control at 140 g/ha [2, 17]
